# From US20160264616A1, “THERAPEUTIC COMPOUNDS AND METHODS” (priority 2015, published 2016)
# Entries after “also recorded” stand apart in the source; their conditions may differ.
# Assays:
# RGS4 = RGS4 (Homo sapiens, UniProt P49798); experiment: Selectivity versus RGS4; format: biochemical
# Method: Characterization of UI-5, UI-1590 and UI-1956 to determine mechanism of action focused initially on the determination of the potential irreversible modification of the RGS protein by the compounds. […] These compounds were tested for selectivity versus RGS4 which was chosen as a model protein due to its high level of sensitivity to thiol modification (18).
# [1] = test system: RGS17ΔN:Gαo interaction in HEK293T cells; experiment: RGS localization assay, GFP-RGS17ΔN co-transfected with hGαo in HEK293T cells; format: cell-based, human
# Method: (§1) HEK293T cells co-transfected with GFP-RGS17FL and human Gαo were treated with UI-5, UI-1590 and […] to determine if the compounds could disrupt the RGS17:Gαo interaction that could drive RGS17 to the membrane. […] To test this hypothesis, we constructed a GFP-RGS17 fusion protein with an N-terminal truncation, removing the cysteine-rich motif. […] As a negative control, we tested a known RGS4 inhibitor (CCG-50014) in this assay against RGS17ΔN (21). […] Finally, to ensure the localization was not due to the GFP tag, pAcGFP vector was co-transfected into HEK293T cells with hGαo. […] Cross-sectional fluorescence intensity analysis was used to quantify the intensity of signal at a cross section of the cell. Average signal at the membrane and in the cytoplasm were calculated and change in signal intensity was assessed between time zero and time final. […] Additionally, the control condition of CCG-50014 was subject to the same analyses as the lead compound.
# Twenty four (24) hours prior to plating, assay plates were coated with 30 μl poly-D-lysine per well. Human Embryonic Kidney 293T cells (HEK293T) were plated in to 96 well tissue culture treated glass bottom view plates (Perkin Elmer, Part No. 6005430) at a density of 25K cells per well. 24 hours post seeding, cells were transfected with hGαo in pCDNA 3.1(+), pAcGFPRGS17 FL, pAcGFP RGS17ΔN, empty pAcGFP, hGαo+pAcGFPRGS17 FL, hGαo+pAcGFP RGS17ΔN, or hGαo+empty pAcGFP vector using Lipofectamine 2000 (Life Technologies) as the transfection reagent and according to manufacture protocols. 24 hours post transfection, cell media was removed and replaced with […] serum free, phenol red free DMEM (Life Technologies, Ref No. 31053-028). Cells were then imaged using a Zeiss LSM510 confocal microscope (University of Iowa Central Microscopy Core). Images were analyzed using NIH Image J software and Graphpad Prism 6.
# Compounds at 2× final desired concentrations were diluted in serum free, phenol red free DMEM.
# Gαo = target: T1, Gαo (Homo sapiens, UniProt P09471); experiment: Differential scanning fluorimetry (DSF) with Gαo; format: binding; conditions: 50 μM compound
# T1 construct: 6xHis; made in house; host or cells: BL21 (DE3) E. coli (printed 'B1-21 (DE3)')
# Method: Further evaluation of the compounds designated UI-5, UI-1590, UI-1907 and UI-1956 was conducted using Differential Scanning Fluorimetry (DSF). This method allows for the rapid measurement of protein stability based on the melting temperature (Tm) of the target protein that is bound by ligand. A shift of Tm indicates a change in protein stability to melting due to stabilization added by the small molecule binding to the target protein. The four compounds were incubated at 50 μM with RGS17 or Gαo in the presence of Sypro Orange. In aqueous solution the fluorescence emission from the dye is very weak. […] The hydrophobic parts of a native, fully folded, protein in solution are generally buried within the protein and therefore not accessible to the dye resulting in little fluorescence emission. When the protein unfolds the dye molecules can bind to the exposed hydrophobic regions of the proteins, resulting in increased fluorescence. […]
# Differential scanning fluorimetry experiments were carried out using white 384-well μltraAMP PCR plates (Sorenson BioSciences; Salt Lake City, Utah). […] All data was collected using the Roche LightCycler data acquisition ability and analyzed with Graphpad Prism 6.0, using first and second derivatives of the fluorescent melting curves.
# [2] = test system: RGS17FL:Gαo interaction in HEK293T cells; experiment: RGS localization assay, GFP-RGS17FL co-transfected with human Gαo in HEK293T cells; format: cell-based; conditions: 100 μM, 0-10 min
# Method: as §1
# Twenty four (24) hours prior to plating, assay plates were coated with 30 μl poly-D-lysine per well. Human Embryonic Kidney 293T cells (HEK293T) were plated in to 96 well tissue culture treated glass bottom view plates (Perkin Elmer, Part No. 6005430) at a density of 25K cells per well. […] Images were analyzed using NIH Image J software and Graphpad Prism 6. […]
# RGS4, sequence (P49798 whole entry, species assumed): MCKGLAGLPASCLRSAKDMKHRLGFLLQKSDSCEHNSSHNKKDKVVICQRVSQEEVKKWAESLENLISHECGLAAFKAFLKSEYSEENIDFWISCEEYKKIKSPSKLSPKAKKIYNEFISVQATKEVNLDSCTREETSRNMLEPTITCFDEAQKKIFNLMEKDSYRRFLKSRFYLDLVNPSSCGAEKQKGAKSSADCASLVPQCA
# T1 sequence (P09471 whole entry): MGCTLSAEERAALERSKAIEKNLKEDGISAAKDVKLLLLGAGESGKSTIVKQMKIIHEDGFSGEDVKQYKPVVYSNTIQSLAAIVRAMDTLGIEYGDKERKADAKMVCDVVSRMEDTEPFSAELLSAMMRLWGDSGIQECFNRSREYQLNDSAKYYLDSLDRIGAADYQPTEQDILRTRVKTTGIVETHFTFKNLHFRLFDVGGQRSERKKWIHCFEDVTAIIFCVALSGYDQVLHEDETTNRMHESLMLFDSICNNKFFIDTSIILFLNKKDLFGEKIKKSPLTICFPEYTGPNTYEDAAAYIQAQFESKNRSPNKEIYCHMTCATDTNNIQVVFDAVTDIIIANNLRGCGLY
Structure (SMILES),inhibition of RGS4 (RGS4),selectivity RGS17 versus RGS4 (RGS4),delocalization / cellular activity ([1]; 10 μM compound),time to full delocalization of GFP-RGS17 from the membrane ([1]; 10 μM compound) [min],delocalization of RGS17ΔN from the membrane ([1]; 100 μM compound),time to full delocalization of GFP-RGS17 from the membrane ([1]; 100 μM compound) [min],effect on Gαo thermal stability (DSF) (Gαo),delocalization of full length RGS17FL [2]
CC1=C(O)C(=O)C=C2C1=CC=C1[C@@]2(C)CC[C@@]2(C)[C@@H]3C[C@](C)(C(=O)O)CC[C@]3(C)CC[C@]12C [UI-1590],inhibited both RGS-4 and RGS-17,more selective for RGS17,had cellular activity,20,delocalization occurs,5,–,–
CC(C)=CCC[C@]1(C)C=Cc2c(O)c3c(c(CC=C(C)C)c2O1)O[C@]12C(=C[C@@H]4C[C@H]1C(C)(C)O[C@@]2(C/C=C(/C)C(=O)O)C4=O)C3=O [UI-1907],–,–,–,–,not,–,decrease the thermal stability of the Gαo subunit,–
C[n+]1cc2c3c(ccc2c2ccc4cc5c(cc4c21)OCO5)OCO3 [UI-5],inhibited both RGS-4 and RGS-17,more selective for RGS17,had cellular activity,30,delocalization occurs,5,–,remained at the membrane; also recorded: does not diffuse back in to the cytoplasm
"O=c1c(-c2cc(O)c(O)c(O)c2)coc2cc(O)c(O)c(O)c12 [UI-1956, 5,6,7-trihydroxy-3-(3,4,5-trihydroxyphenyl)-4H-chromen-4-one]",–,selective for RGS17,had cellular activity,30,delocalization occurs,20,–,–
